From the supplement of paper PMC10307832

Tests used:
Experiment in all cases: relative viability (nuclei count vs DMSO), 5 days (fraction); higher = more cells survive
Wnt-C59 + Alpelisib = compound: CC1=NC=CC(=C1)C2=CC=C(C=C2)CC(=O)NC3=CC=C(C=C3)C4=CN=CC=C4 [Wnt-C59] + Cc1nc(NC(=O)N2CCC[C@H]2C(N)=O)sc1-c1ccnc(C(C)(C)C(F)(F)F)c1 [Alpelisib] (partner 2 µM)
Method in brief: (§1)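 Nuclei were stained with Hoechst during a one-step fixation (final 0.05% Triton X-100, 1% formaldehyde, 1 ug/ml Hoechst) carried out 5 days after dosing, then counted on 4× images. The cells, lung cancer lines in 1536-well plates, had been dosed by pin tool the day after seeding with one drug alone or a fixed anchor-drug dose plus five library-drug doses (not always all listed) in √10 steps. Relative viability is the nuclei count in treated wells divided by that in vehicle wells, and each value is the median of duplicate plates.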

Lapatinib + Navitoclax = compound: CS(=O)(=O)CCNCc1ccc(-c2ccc3ncnc(Nc4ccc(OCc5cccc(F)c5)c(Cl)c4)c3c2)o1 [Lapatinib] + CC1(C)CCC(c2ccc(Cl)cc2)=C(CN2CCN(c3ccc(C(=O)NS(=O)(=O)c4ccc(N[C@H](CCN5CCOCC5)CSc5ccccc5)c(S(=O)(=O)C(F)(F)F)c4)cc3)CC2)C1 [Navitoclax] (partner 0.5 µM)
Method in brief: as §1

Lapatinib + OSI-027 = compound: CS(=O)(=O)CCNCc1ccc(-c2ccc3ncnc(Nc4ccc(OCc5cccc(F)c5)c(Cl)c4)c3c2)o1 [Lapatinib] + COc1cccc2cc(-c3nc([C@H]4CC[C@H](C(=O)O)CC4)n4ncnc(N)c34)[nH]c12 [OSI-027] (partner 0.5 µM)
Method in brief: as §1

Lapatinib + Alpelisib = compound: CS(=O)(=O)CCNCc1ccc(-c2ccc3ncnc(Nc4ccc(OCc5cccc(F)c5)c(Cl)c4)c3c2)o1 [Lapatinib] + Cc1nc(NC(=O)N2CCC[C@H]2C(N)=O)sc1-c1ccnc(C(C)(C)C(F)(F)F)c1 [Alpelisib] (partner 2 µM)
Method in brief: as §1

Cell Line	relative viability (Wnt-C59 + Alpelisib; first compound 0.001 µM)	relative viability (Wnt-C59 + Alpelisib; first compound 0.01 µM)	relative viability (Wnt-C59 + Alpelisib; first compound 0.03162 µM)	relative viability (Wnt-C59 + Alpelisib; first compound 0.1 µM)	relative viability (Lapatinib + Navitoclax; first compound 0.06325 µM)	relative viability (Lapatinib + Navitoclax; first compound 0.2 µM)	relative viability (Lapatinib + Navitoclax; first compound 0.6325 µM)	relative viability (Lapatinib + Navitoclax; first compound 2 µM)	relative viability (Lapatinib + OSI-027; first compound 0.06325 µM)	relative viability (Lapatinib + OSI-027; first compound 0.2 µM)	relative viability (Lapatinib + OSI-027; first compound 0.6325 µM)	relative viability (Lapatinib + OSI-027; first compound 2 µM)	relative viability (Lapatinib + Alpelisib; first compound 0.06325 µM)	relative viability (Lapatinib + Alpelisib; first compound 0.2 µM)	relative viability (Lapatinib + Alpelisib; first compound 0.6325 µM)	relative viability (Lapatinib + Alpelisib; first compound 2 µM)	relative viability (Lapatinib + Navitoclax; first compound 0.02 µM)	relative viability (Lapatinib + Alpelisib; first compound 0.02 µM)	relative viability (Lapatinib + OSI-027; first compound 0.02 µM)
NCI-H1915	1.07	1.01	1.07	1.03	0.822	0.752	0.79	0.81	0.601	0.629	0.607	0.619	1.05	1.08	1.03	1.02	–	–	–
Calu-6	0.898	0.945	1.15	0.938	0.812	0.91	0.819	0.764	–	–	–	–	0.93	1.06	1.01	0.894	0.844	0.919	–
LU99A	0.496	0.566	0.604	0.538	0.63	0.805	0.886	0.725	0.244	0.297	0.293	0.284	0.476	0.527	0.524	0.54	0.829	0.564	0.283
LOU-NH91	0.744	0.597	0.683	0.79	0.558	0.502	0.541	0.324	0.577	0.51	0.589	0.453	0.557	0.533	0.508	0.472	0.555	0.661	0.608
NCI-H1993	0.763	0.642	0.682	0.708	–	0.618	0.69	0.51	–	0.593	0.586	0.652	–	0.721	0.684	0.665	0.831	0.683	0.557
NCI-H1703	0.33	0.328	0.352	0.283	0.943	1.03	1.33	0.996	–	–	–	–	0.33	0.325	0.398	0.343	0.908	0.289	–
NCI-H2405	0.89	–	0.646	0.789	0.769	0.868	0.881	0.72	0.382	0.655	0.649	0.604	0.609	0.733	0.781	0.689	–	–	0.441
NCI-H661	0.621	0.595	0.813	0.821	–	–	–	–	0.322	0.545	0.495	0.424	0.637	0.468	0.45	0.36	–	0.646	0.654
COR-L 105	1.19	1.03	0.93	0.78	0.744	0.77	0.574	0.302	0.362	0.449	0.413	0.269	0.765	1.03	0.804	0.294	0.701	0.872	0.638
NCI-H1437	1.07	0.917	1.09	0.946	1.08	1.11	1.03	1	0.684	0.841	0.751	0.645	0.869	1.02	0.864	0.866	1.09	1	0.814
NCI-H1563	0.925	0.852	1.07	0.888	–	–	–	–	0.654	0.772	0.715	0.715	0.848	0.795	0.961	0.898	–	0.951	0.716
NCI-H2009	1.15	1.16	1.14	1.18	1.21	1.21	1.17	1.14	0.557	0.681	0.764	0.66	1.16	1.16	1.16	1.12	1.11	1.12	0.64
NCI-H23	0.68	0.663	0.822	0.584	–	0.836	0.777	0.615	–	0.51	0.639	0.504	–	0.737	0.719	0.521	–	–	–
201T	1.06	1.01	0.99	1	1.22	1.16	1.22	1.2	0.598	0.597	0.807	0.703	0.834	0.993	1	0.943	1.16	0.998	0.794
NCI-H520	0.932	0.969	1.06	0.785	1.06	1.08	1.25	0.972	0.181	0.321	0.266	0.232	0.805	0.912	1.02	0.807	0.951	0.961	0.276
NCI-H1623	–	–	–	–	–	–	–	–	0.367	0.407	0.387	0.246	–	–	–	–	–	–	0.377
A-427	1.07	1	1.14	1.08	0.977	0.885	0.933	0.957	0.359	0.516	0.541	0.417	1.04	1.1	1.07	1.04	–	–	–
NCI-H1975	0.67	0.591	0.707	0.704	1.09	1.04	0.918	0.867	0.472	0.494	0.568	0.446	0.58	0.537	0.573	0.462	0.993	0.662	0.699
NCI-H647	1.15	1.11	1.23	1	1.14	1.05	1.04	0.963	0.488	0.527	0.689	0.642	0.779	1.06	1.14	1.01	–	1.01	0.635
NCI-H3122	0.836	0.784	0.872	0.716	1	1.01	0.968	1.01	0.556	0.962	0.902	0.893	0.725	0.752	0.691	0.771	1.01	0.714	–
A549	0.978	0.75	0.712	0.682	1.13	1.22	1.21	1.21	–	–	–	–	0.528	0.755	0.665	0.516	1.12	0.609	–

Cell Line	relative viability (Wnt-C59 + Alpelisib; first compound 0.001 µM)	relative viability (Wnt-C59 + Alpelisib; first compound 0.01 µM)	relative viability (Wnt-C59 + Alpelisib; first compound 0.03162 µM)	relative viability (Wnt-C59 + Alpelisib; first compound 0.1 µM)	relative viability (Lapatinib + Navitoclax; first compound 0.06325 µM)	relative viability (Lapatinib + Navitoclax; first compound 0.2 µM)	relative viability (Lapatinib + Navitoclax; first compound 0.6325 µM)	relative viability (Lapatinib + Navitoclax; first compound 2 µM)	relative viability (Lapatinib + OSI-027; first compound 0.06325 µM)	relative viability (Lapatinib + OSI-027; first compound 0.2 µM)	relative viability (Lapatinib + OSI-027; first compound 0.6325 µM)	relative viability (Lapatinib + OSI-027; first compound 2 µM)	relative viability (Lapatinib + Alpelisib; first compound 0.06325 µM)	relative viability (Lapatinib + Alpelisib; first compound 0.2 µM)	relative viability (Lapatinib + Alpelisib; first compound 0.6325 µM)	relative viability (Lapatinib + Alpelisib; first compound 2 µM)	relative viability (Lapatinib + Navitoclax; first compound 0.02 µM)	relative viability (Lapatinib + Alpelisib; first compound 0.02 µM)	relative viability (Lapatinib + OSI-027; first compound 0.02 µM)
NCI-H1299	1.05	1.08	1.05	1.04	1.06	1.05	1.01	1.06	–	–	–	–	1.08	1.11	1.03	1.04	1.05	1.06	–
HCC-44	0.792	0.817	0.865	0.892	0.89	0.995	0.949	0.768	0.341	0.509	0.421	0.473	0.621	0.75	0.873	0.535	0.874	0.689	–
NCI-H838	1.06	0.98	1.13	1.02	1.06	1.16	1.17	1	0.256	0.369	0.383	0.332	0.88	1.07	0.967	0.912	1.13	1.05	0.401
NCI-H2342	–	–	–	–	–	–	–	–	0.503	0.506	0.562	0.55	–	–	–	–	–	–	0.552
NCI-H460	0.45	0.46	0.472	0.413	1.08	1.08	1.11	1.1	0.438	0.481	0.533	0.477	0.362	0.448	0.389	0.4	0.966	0.415	0.544
CAL-12T	1.25	1.32	1.31	1.1	1.23	1.32	1.03	0.724	0.32	0.497	0.319	0.313	1.26	1.25	1.13	0.417	1.18	1.05	–
NCI-H1650	–	–	–	–	1.11	1.24	1.01	0.761	0.456	0.59	0.555	0.338	–	–	–	–	1.06	–	0.437
NCI-H650	1.01	1.24	1.23	1.11	–	–	–	–	0.411	0.468	0.505	0.543	1.04	0.998	0.953	1.2	–	–	–
NCI-H2085	0.998	0.97	0.888	0.904	0.925	0.987	1.01	0.805	0.536	0.61	0.584	0.269	0.845	0.932	1	0.694	1.06	0.869	–
NCI-H2126	0.742	0.703	0.788	0.723	0.799	0.764	0.806	0.739	–	0.644	0.688	0.557	0.587	0.668	0.677	0.549	–	–	–
NCI-H1666	0.874	0.895	0.974	0.942	0.724	0.737	0.464	0.217	0.732	0.645	0.657	0.316	0.835	0.671	0.485	0.244	0.794	0.744	0.828
NCI-H727	0.584	0.546	0.741	0.421	0.341	0.401	0.4	0.32	–	0.557	0.467	0.499	0.484	0.472	0.558	0.366	0.388	0.515	0.529
NCI-H522	–	–	–	–	–	–	–	–	0.565	0.658	0.681	0.589	–	–	–	–	–	–	–
SW 900	–	–	–	–	–	–	–	–	0.576	0.532	0.496	0.488	–	–	–	–	–	–	–
IA-LM	0.84	0.862	0.759	0.804	0.794	0.817	0.728	0.713	–	–	–	–	0.66	0.76	0.763	0.792	0.769	0.653	–
ChaGo-K-1	–	–	–	–	1.15	0.781	0.99	0.457	0.391	0.585	0.53	0.462	–	–	–	–	–	–	0.341
NCI-H1648	–	–	–	–	–	–	–	–	0.306	0.289	0.288	0.268	–	–	–	–	–	–	0.266
NCI-H358	0.917	0.825	0.901	0.905	–	–	–	–	0.285	0.439	0.285	0.215	–	0.574	0.414	0.336	–	0.741	0.567
ABC-1	1.26	1.01	0.718	0.876	–	–	–	–	0.321	0.706	0.702	0.477	1.06	1.23	0.88	0.838	–	–	0.532
LCLC-103H	0.951	0.969	1.04	1.16	–	–	–	–	0.372	0.429	0.417	0.436	0.882	0.924	0.848	0.92	–	–	0.409
EBC-1	0.91	0.852	0.755	0.79	0.361	0.457	0.337	0.265	–	–	–	–	0.766	0.889	0.801	0.695	0.459	0.826	–
